Test results from patent publication US20240197746A1, “COMBINATION THERAPY WITH A MEK INHIBITOR AND A SRC INHIBITOR FOR THE TREATMENT OF COLORECTAL CANCER” (Yeda Research and Development Co. Ltd., priority 2021, published 2024).
Where two headings read alike, the source gives them in different places.

System: fresh & PDX human tumors
Experiment: EVOC drug dose calibration, cell death by H&E viability score
Type: cell-based
Text: Tissue acquisition and EVOC. Female NOD scid gamma (NSG) mice (4-6 months old) bearing PDX tumors were purchased from Jackson Laboratories. Mice arrived to the facility when the tumors had grown sufficiently to be apparent (approximately 60 mm^3) and were maintained until the maximal permitted tumor volume of 1,000 mm^3 was achieved. Mice were killed with CO2, and tumor tissues were removed and placed in ice-cold PBS. Tumors were sliced into 250-μm-thick slices using a vibratome (VF300, Precisionary Instruments) and placed in six-well plates on titanium grids (MA0036, Alabama R&D) with 4 ml of DMEM/F12 medium (supplemented with 5% fetal calf serum, 100 IU ml^−1 penicillin with 100 μg ml−1 streptomycin, 2.5 μg ml^−1 amphotericin B, […] gentamicin sulfate and 100 μl ml−1 l-glutamine). Tissue was cultured at 37° C. with 5% CO2 and 80% O2 on an orbital shaker (TOU-120N, MRC) at 70 r.p.m. The following day, tissue was treated with drugs as indicated for 96 h (medium was changed after 48 h and fresh drug was added), followed by formalin fixing and paraffin embedding after overnight fixation in 4% paraformaldehyde. Note that duplicates and triplicates were assigned randomly to mimic heterogeneity within the tumor tissue in vivo.
Human tumor tissue, either from primary colon cancer or metastatic lesions, was obtained from individuals at the time of operation or at the time of tissue core biopsy. After resection, the fresh tissue was placed in ice-cold PBS for immediate transfer to the lab for EVOC. Specimens were coded anonymously before their arrival to the lab. Forty-six individuals were enrolled in the study and had sufficient tumor volume at operation or accessible tumors for core biopsy to allow us to perform EVOC. In one individual, both primary and metastatic cancer tissue was obtained so that 47 samples in total were studied. In 14 individuals, there was either adenoma or not enough tumor tissue for evaluation. In an additional three individuals, the tissue was necrotic before slicing and EVOC. In one individual, the tissue culture was contaminated, and in one individual, the fixation was insufficient. Finally, 29 CRC primary or metastatic tumors from 28 individuals were analyzed by EVOC.
Histologic sections were assessed for viability by an independent blinded pathologist. Tissue viability was scored on a scale from 0 to 4, where 0 is less than 10% viable tissue and 4 is more than 90% viable tissue. Scores of 3, 2 and 1 correspond to tissue viability of 61-90%, 31-60% and 10-30%, respectively.
Determination of drug treatment concentrations. To determine the concentration of each drug to be used in the ex vivo screen, we first calibrated the effect of multiple concentrations of each drug on PDX CRC tumors. For the screens, we selected the doses that were minimally effective in killing tissue after 4 d of treatment as evaluated by H&E staining. […] In addition, when testing targeted therapies, the present inventors validated that the chosen drug concentrations were effective in inhibiting their targets. This was evaluated by immunohistochemical staining after 24 h of treatment (FIGS. 11A-C). Here again, the lowest drug concentration that was enough to inhibit the drug target was used.

[1] = EVOC, concentrations that demonstrate a difference in amount of cell death in individual patient tissues

SMILES: Cl.Cl.O=S(=O)(NCCNC/C=C/c1ccc(Br)cc1)c1cccc2cnccc12 [H89 2HCl, H-89 dihydrochloride]
- Range eliciting differential response [1]: 1 to 16 µM

SMILES: O=C1[O][Pt]2([NH][C@@H]3CCCC[C@H]3[NH]2)[O]C1=O [Oxaliplatin]
- Range eliciting differential response: 2 to 64 µM

SMILES: N.N.[Cl][Pt][Cl] [Cisplatin]
- Range eliciting differential response [1]: 0.3-30^ uM

SMILES: Cc1cc(Nc2cc(N3CCN(C)CC3)nc(Sc3ccc(NC(=O)C4CC4)cc3)n2)n[nH]1 [VX-680]
- Range eliciting differential response [1]: 1 to 16 µM

SMILES: COc1ccc(C2=N[C@@H](c3ccc(Cl)cc3)[C@@H](c3ccc(Cl)cc3)N2C(=O)N2CCNC(=O)C2)c(OC(C)C)c1 [Nutlin]
- Range eliciting differential response [1]: 4 to 16 µM
